Measurements as given in patent publication US9840478B2 (MERCK SHARP & DOHME CORP., priority 2013, dated 2017).
Where two headings read alike, the source gives them in different places.

Legend:
HIV-1 (H9IIIB strain) = experiment: Cell-based HIV infection assay using a reporter (Cell-Based), MT4-GFP cells; conditions: 50% normal human serum, mean of at least two independent experiments, read-out: Cell-based IP
In short: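 IC50 from 4-parameter dose-response of % viral growth inhibition, using the 48 h/24 h infected-cell ratio scaled between DMSO and a protease/integrase/NNRTI triple-drug control. Assay used MT4 cells with HIV-LTR-GFP reporter, pre-infected 24 h with HIV-1 H9IIIB, in 50% normal human serum.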

wildtype HIV-1 protease = target: T1, wildtype HIV-1 protease (Human immunodeficiency virus type 1 group M subtype B, UniProt P04585); experiment: Assay for inhibition of microbial expressed HIV protease (Pepcleav); format: biochemical; conditions: wildtype HIV-1 protease expressed in E. coli; peptide substrate; mean of at least two independent experiments
T1 construct: preincubated with the HIV-1 protease (wild type) enzyme in assay buffer; made in house; host or cells: Escherichia coli
Method: Assay for Inhibition of Microbial Expressed HIV Protease (“Pepcleav”)
Studies of the inhibition of the wildtype HIV-1 protease (which was expressed in Escherichia coli) were carried out with a peptide substrate [Val-Ser-Gln-Asn-(βnaphtyl)Ala-Pro-Ile-Val]. The inhibitor is first preincubated with the HIV-1 protease (wild type) enzyme in assay buffer (50 mM sodium acetate, pH 5.5, 100 mM NaCl, and 0.1% BSA) for 30 minutes at room temperature. Substrate is added to 400 micromolar in a total volume of 20 microliters containing 20 picomolar HIV-1 protease (final) and the reaction is incubated for 1 hour at 30° C. The reaction is quenched with the addition of formic acid and indinavir to 0.012% and 150 nM final concentrations, respectively. The product formation is determined after separation of product and substrate on a Zorbax Eclipse XDB-C18 column connected to an API 4000 mass spectrometer (Applied Biosystems) with multiple reaction monitoring (transitions were 644.5/428.9 and 615.4/422.2 (M1/M3) for product and indinavir respectively). The extent of inhibition of the reaction is determined from the peak area of the products. Analysis of the products, independently synthesized, provided quantitation standards and confirmation of the product composition.

[1] = Human immunodeficiency virus 1, MT4-GFP cells infected with HIV-1 H9IIIB

Row | Structure (SMILES) | IC50 (HIV-1 (H9IIIB strain); MT4-GFP cells infected with HIV-1 H9IIIB) | IC50 (wildtype HIV-1 protease) | IC50 (HIV-1 (H9IIIB strain); [1])
1 | C[C@H]1CNC[C@H](CCc2c(F)cccc2NC(=O)[C@@H](N)[C@@H](c2ccc(F)cc2)c2cc(F)cc(F)c2)N1S(C)(=O)=O [Example 96, (βS)-β-(3,5-difluorophenyl)-4-fluoro-N-(3-fluoro-2-{2-[(2S,6S)-6-methyl-1-(methylsulfonyl)piperazin-2-yl]ethyl}phenyl)-L-phenylalaninamide] | 24 nM | 6.1 nM | –
2 | CC(=O)NC1CCN(S(=O)(=O)N2CCNC[C@@H]2CCc2c(F)cncc2NC(=O)C[C@@H](c2ccc(F)cc2)c2cc(F)cc(F)c2)CC1 [Example 335, (3S)-N-(4-{2-[(2S)-1-{[4-(acetylamino)piperidin-1-yl]sulfonyl}piperazin-2-yl]ethyl}-5-fluroopyridin-3-yl)-3-(3,5-difluorophenyl)-3-(4-fluorophenyl)propanamide] | – | 24 nM | 650 nM
3 | O=C(C[C@@H](c1ccc(F)cc1)c1cc(F)cc(F)c1)Nc1cncc(F)c1CC[C@H]1CNCCN1S(=O)(=O)C1CC1 [Example 303, (3S)-N-(4-{2-[(2S)-1-(cyclopropylsulfonyl)piperazin-2-yl]ethyl}-5-fluoropyridin-3-yl)-3-(3,5-difluorophenyl)-3-(4-fluorophenyl)propanamide] | – | 5 nM | 14 nM
